Target: T1, SARS-CoV-2 Spike (Severe acute respiratory syndrome coronavirus 2, UniProt P0DTC2)
T1 construct: gene S
Assay: SPR (Reichert4, CM5 chip, Spike immobilised)
Format: binding

## COc1ccc2cc1Oc1ccc(cc1)C[C@H]1c3cc(c(OC)cc3CCN1C)Oc1c(OC)c(OC)cc3c1[C@H](C2)N(C)CC3 [tetrandrine]
  Kd: ~2.23 µM
